The text below walks through data of ChEMBL document CHEMBL1201862, “PubChem BioAssay data set” (2004).

Experiment [1] is described as follows: cAMP pathway inhibition in counterscreen cell line – TR-FRET cAMP detection, counter-screen for MC4R biased antagonist project, dose response (AID 602305).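 Also: U2OS cells stimulated with forskolin near its EC80 as the cAMP inducer; potency is for inhibition of forskolin-stimulated cAMP signaling.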 It is filed as functional, cell-based. On the technique in general: Counterscreens check selectivity or assay interference.
Experiment [2] has as its target Melanocortin receptor 4 (Homo sapiens, UniProt P32245). Briefly: inhibitors of MC4R cAMP signaling – cell-based, TR-FRET, biased antagonists, dose response (AID 602298).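 Also: antagonist potency against agonist-stimulated cAMP production.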 The format is functional. Background: TR-FRET usually uses a lanthanide donor and a delayed reading to cut background.
Experiment [3] concerns the target Melanin-concentrating hormone receptor 1 (Homo sapiens, UniProt Q99705). Put plainly: Late-stage fluorescence-based counterscreen for antagonists of the G-protein coupled receptor 7 (GPR7): cell-based dose response assay to identify antagonists of the melanin-concentrating hormone receptor 1 (MCHR1) Set 6. The format is functional.
Experiment [4] addresses T1, Neuropeptides B/W receptor type 1 (Homo sapiens, UniProt P48145).
T1 sequence (P48145 whole entry): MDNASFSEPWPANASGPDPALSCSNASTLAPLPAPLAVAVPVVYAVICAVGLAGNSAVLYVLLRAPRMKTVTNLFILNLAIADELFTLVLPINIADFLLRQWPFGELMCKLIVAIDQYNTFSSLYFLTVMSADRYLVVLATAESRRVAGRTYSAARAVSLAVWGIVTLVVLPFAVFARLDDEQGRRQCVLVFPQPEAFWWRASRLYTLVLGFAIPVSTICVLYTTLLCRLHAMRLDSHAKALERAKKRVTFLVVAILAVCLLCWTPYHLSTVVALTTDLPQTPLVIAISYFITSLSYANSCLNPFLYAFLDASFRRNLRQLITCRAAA
Briefly: human NPBW1 receptor blockade, IC50 – cell-based, fluorescence, dose response, set 6, late-stage follow-up (AID 588583). It is filed as functional.

The target of experiment [5] is T2, Streptokinase A (Streptococcus pyogenes serotype M1, UniProt P10520).
T2 sequence (P10520 whole entry): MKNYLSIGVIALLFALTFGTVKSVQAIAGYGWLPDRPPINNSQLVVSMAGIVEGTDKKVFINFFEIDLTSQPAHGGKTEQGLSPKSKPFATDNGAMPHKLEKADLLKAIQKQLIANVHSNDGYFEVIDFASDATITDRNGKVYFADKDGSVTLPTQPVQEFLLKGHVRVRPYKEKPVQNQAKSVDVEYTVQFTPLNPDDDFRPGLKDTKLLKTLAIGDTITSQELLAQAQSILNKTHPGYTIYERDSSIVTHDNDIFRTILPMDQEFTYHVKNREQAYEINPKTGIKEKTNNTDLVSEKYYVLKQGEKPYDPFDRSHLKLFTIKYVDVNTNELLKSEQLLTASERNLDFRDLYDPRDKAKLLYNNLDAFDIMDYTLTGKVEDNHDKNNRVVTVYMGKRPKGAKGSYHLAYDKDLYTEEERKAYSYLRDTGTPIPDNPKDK
Put plainly: viability-normalized secreted streptokinase activity reduction – plasminogen activation absorbance, OD405, dose response (AID 1914).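 Also: secreted streptokinase activity via plasminogen activation per viability signal from cell pellet.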 It is filed as functional, Streptococcus pyogenes M1 GAS.

Experiment [6] deals with Prothrombin (Bos taurus, UniProt P00735). Put plainly: thrombin protease inhibitors – biochemical, fluorescence polarization, uHTS hits, dose response (AID 602369). The format is functional. On the technique in general: Polarisation of emitted light reports the rotation of a fluorescent probe.
In experiment [7] the target is 72 kDa type IV collagenase (Homo sapiens, UniProt P08253). Briefly: Dose Response validation of uHTS RPN11 inhibitor hits using a MMP-2 Fluorescence assay. It is filed as functional.
72 kDa type IV collagenase, sequence (P08253 whole entry): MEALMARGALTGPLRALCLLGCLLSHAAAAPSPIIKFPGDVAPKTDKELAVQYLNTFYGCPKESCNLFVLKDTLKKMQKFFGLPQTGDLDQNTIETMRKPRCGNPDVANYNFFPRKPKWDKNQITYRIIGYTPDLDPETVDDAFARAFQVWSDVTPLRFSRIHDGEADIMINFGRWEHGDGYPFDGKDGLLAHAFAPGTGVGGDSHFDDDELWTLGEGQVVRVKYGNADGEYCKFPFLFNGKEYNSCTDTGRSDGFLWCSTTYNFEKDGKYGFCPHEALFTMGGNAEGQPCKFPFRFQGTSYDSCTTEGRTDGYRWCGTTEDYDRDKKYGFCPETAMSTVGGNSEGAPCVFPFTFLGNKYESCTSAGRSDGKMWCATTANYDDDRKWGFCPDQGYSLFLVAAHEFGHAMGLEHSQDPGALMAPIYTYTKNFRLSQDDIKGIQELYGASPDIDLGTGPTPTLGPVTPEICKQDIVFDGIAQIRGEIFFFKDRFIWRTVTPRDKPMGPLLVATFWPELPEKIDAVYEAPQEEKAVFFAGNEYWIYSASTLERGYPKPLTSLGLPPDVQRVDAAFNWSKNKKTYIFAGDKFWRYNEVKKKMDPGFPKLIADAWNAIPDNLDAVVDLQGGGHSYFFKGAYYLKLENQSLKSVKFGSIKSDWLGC
The test system of experiment [8] is Streptococcus. Put plainly: GAS UMAA2166 growth inhibition – luminescence, BacTiterGlo, counter-screen for streptokinase expression inhibitor project, dose response (AID 1915).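 Also: potency for reduction of bacterial viability or growth.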 The format is functional, organism-based.
The test system of experiment [9] is Streptococcus sp. 'group A'. Put plainly: Streptococcus pyogenes SK(-)GAS viability under kanamycin – luminescence, BacTiterGlo, confirmation, counter-screen for streptokinase expression inhibitor project, dose response (AID 1900). It is filed as functional, organism-based.
In experiment [10] the target is 26S proteasome non-ATPase regulatory subunit 14 (Homo sapiens, UniProt O00487). Briefly: inhibition of proteasome subunit RPN11 – biochemical, fluorescence polarization, uHTS hits, confirmation (AID 602368). It is filed as functional.
26S proteasome non-ATPase regulatory subunit 14, sequence (O00487 whole entry): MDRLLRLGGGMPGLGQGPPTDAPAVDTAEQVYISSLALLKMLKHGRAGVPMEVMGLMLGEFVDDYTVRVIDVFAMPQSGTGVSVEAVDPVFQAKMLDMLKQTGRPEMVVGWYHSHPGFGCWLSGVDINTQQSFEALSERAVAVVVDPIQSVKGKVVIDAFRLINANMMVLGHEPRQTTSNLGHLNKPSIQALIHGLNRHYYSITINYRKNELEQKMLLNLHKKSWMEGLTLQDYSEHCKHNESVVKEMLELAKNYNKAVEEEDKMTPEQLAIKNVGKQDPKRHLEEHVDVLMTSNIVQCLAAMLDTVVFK
In experiment [11] the target is Aurora kinase B (Homo sapiens, UniProt Q96GD4). The format is functional.
Aurora kinase B, sequence (Q96GD4 whole entry): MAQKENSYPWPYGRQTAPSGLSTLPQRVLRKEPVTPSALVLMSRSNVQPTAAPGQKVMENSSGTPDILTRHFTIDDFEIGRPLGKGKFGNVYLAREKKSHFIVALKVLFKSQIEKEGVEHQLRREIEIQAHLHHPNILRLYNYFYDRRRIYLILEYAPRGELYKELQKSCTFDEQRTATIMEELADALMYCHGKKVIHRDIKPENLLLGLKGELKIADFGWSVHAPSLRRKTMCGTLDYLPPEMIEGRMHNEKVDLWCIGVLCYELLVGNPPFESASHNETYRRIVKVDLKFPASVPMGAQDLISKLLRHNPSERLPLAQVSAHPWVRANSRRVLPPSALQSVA
Experiment [12] has as its target T3, Heat shock factor protein 1 (Mus musculus, UniProt P38532).
T3 sequence (P38532 whole entry): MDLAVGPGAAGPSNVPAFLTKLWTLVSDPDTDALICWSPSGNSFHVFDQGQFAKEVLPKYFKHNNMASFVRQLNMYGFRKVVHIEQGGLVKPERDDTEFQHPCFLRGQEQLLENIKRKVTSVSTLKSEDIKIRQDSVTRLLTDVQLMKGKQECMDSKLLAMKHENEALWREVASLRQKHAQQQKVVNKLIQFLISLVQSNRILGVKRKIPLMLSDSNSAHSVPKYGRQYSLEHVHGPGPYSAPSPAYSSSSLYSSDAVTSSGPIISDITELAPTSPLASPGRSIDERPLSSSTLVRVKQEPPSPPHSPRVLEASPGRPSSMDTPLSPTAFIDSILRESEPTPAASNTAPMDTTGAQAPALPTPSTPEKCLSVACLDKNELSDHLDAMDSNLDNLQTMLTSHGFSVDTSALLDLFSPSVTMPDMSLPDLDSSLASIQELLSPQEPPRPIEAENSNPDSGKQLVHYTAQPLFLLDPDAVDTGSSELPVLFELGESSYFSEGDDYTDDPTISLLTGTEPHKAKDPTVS
Put plainly: decrease of HSF1-responsive luciferase luminescence – cell-based, NIH3T3, dose retest, confirmation (AID 2382).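 Also: NIH3T3 fibroblasts with HSF1-driven luciferase reporter stressed by proteasome inhibitor MG132; luminescence from HSF1-driven luciferase expression after 8 hours of MG132 stress.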 The format is functional.

Experiment [13] concerns the target Protein disulfide-isomerase (Homo sapiens, UniProt P07237). Put plainly: inhibition of PDI-driven insulin aggregation – biochemical, turbidity, absorbance, cherry-picked samples, dose response (AID 602350). The format is functional.
In experiment [14] the target is T4, Estrogen receptor (Homo sapiens, UniProt P03372).
T4 sequence (P03372 whole entry): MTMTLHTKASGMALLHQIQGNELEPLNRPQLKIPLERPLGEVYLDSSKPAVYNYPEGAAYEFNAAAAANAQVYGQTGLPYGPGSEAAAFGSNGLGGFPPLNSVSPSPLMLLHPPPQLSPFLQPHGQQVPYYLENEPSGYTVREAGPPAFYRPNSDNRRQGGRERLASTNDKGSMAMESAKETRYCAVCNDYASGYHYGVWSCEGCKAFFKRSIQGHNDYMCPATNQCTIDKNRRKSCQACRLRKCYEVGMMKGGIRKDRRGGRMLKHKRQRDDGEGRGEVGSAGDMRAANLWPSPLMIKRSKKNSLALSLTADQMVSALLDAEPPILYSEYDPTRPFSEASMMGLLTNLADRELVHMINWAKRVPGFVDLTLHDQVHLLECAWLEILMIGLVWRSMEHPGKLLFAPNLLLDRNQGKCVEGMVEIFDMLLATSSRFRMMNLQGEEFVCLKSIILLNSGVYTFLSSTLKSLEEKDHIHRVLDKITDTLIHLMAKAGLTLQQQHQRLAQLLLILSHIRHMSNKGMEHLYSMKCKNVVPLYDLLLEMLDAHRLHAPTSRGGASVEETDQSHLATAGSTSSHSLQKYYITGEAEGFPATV
Put plainly: ERα coactivator recruitment enhancers – biochemical, TR-FRET, ERα LBD, dose response (AID 737).

Activity calls are given as the source filed them.

Protein disulfide-isomerase, sequence (P07237 whole entry): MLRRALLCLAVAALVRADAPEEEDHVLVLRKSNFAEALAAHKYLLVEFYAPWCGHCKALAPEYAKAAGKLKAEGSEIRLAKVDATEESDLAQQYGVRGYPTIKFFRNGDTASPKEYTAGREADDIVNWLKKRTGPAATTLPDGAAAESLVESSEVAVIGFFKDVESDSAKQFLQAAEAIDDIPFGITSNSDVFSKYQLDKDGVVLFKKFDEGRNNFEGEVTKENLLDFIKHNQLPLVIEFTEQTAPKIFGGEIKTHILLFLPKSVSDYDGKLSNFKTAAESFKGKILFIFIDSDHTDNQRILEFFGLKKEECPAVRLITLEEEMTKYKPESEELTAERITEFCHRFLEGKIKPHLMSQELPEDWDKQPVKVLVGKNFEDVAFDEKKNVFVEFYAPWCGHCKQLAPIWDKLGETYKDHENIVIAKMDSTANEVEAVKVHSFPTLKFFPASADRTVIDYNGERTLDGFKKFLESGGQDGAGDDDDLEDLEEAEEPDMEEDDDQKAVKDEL
Melanin-concentrating hormone receptor 1, sequence (Q99705 whole entry): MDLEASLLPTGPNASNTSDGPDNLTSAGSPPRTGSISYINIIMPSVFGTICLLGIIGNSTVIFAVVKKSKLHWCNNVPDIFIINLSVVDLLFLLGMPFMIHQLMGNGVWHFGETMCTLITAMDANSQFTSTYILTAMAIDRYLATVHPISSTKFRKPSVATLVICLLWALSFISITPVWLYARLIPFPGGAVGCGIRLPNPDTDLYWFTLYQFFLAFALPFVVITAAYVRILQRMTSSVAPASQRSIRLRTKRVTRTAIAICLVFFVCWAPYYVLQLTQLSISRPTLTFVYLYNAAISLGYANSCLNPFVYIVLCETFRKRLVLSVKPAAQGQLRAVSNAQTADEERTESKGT
Melanocortin receptor 4, sequence (P32245 whole entry): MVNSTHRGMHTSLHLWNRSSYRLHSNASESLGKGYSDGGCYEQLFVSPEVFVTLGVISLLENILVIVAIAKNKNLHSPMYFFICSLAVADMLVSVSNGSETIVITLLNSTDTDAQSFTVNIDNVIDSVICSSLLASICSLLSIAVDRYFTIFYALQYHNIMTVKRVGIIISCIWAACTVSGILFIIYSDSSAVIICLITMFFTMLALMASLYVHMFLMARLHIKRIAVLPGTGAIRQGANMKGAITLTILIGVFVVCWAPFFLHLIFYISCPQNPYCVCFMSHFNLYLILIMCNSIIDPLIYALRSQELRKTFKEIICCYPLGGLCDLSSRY

With `CCOC(=O)c1cnc2ccc(OCC)cc2c1NCc1ccccc1`, the IC50 in experiment [1] and in experiment [2] was > 64.6 µM (inactive) throughout.

For the molecule `N#CC(c1ccccn1)c1c(Br)cnn(Cc2cccc3ccccc23)c1=O` (centres undefined), the IC50 in [3] and in experiment [4] was 0.8 µM (active) in each case.

As to `O=C1NC(=S)N(C2CCCCC2)C(=O)/C1=C/NNC(=O)c1ccccc1`, the figures for the EC50 in experiment [5], in experiment [8] and in [9] were > 150 µM (not active), 8.22 µM (active) and 0.519 µM (active), respectively. Also, the values for the IC50 in experiment [6], in experiment [7] and in experiment [10] were 36.1 µM (active), > 100 µM (inactive) and 40.3 µM (active), respectively.

Regarding `Cc1cccc(Nc2nccc(Nc3ccccc3C(=O)O)n2)c1`, the Ki – broadly, a dissociation constant, usually derived from enzyme kinetics or from competition with a known ligand – in experiment [11] is 0.00126 µM (active).

Turning to `C[C@]12CC[C@@H]3c4ccc(O[C@@H]5O[C@H](C(=O)O)[C@@H](O)[C@H](O)[C@H]5O)cc4CC[C@H]3[C@@H]1C[C@@H](O)[C@@H]2O`, the half-maximal effective concentration (EC50) – broadly, the concentration giving half of the maximal effect – in experiment [12] was > 195 µM (not active); in experiment [14] it was 9.16 µM (active). Also, the AC50 (commonly the concentration at which the activity in the assay is half-maximal) in experiment [13] is 15.7 µM (active).
